The values that follow come from patent publication US8846686B2, “Compounds useful as inhibitors of ATR kinase” (Vertex Pharmaceuticals Incorporated, priority 2011, dated 2014).

In data set [1] the test system is HCT116 colorectal cancer cells. The data set is described as follows: Single agent HCT116 activity, 96 h cell viability (MTS) assay. The data set is classed as cell-based. As to conditions: Homo sapiens, HCT-116; 96 h MTS cell viability; read-out: Single agent HT116 IC50. As to the method:
Compounds can be screened for single agent activity against HCT116 colorectal cancer cells using a 96 h cell viability (MTS) assay. HCT116 are plated at 470 cells per well in 96-well polystyrene plates (Costar 3596) in 150 μl of McCoy's 5A media (Sigma M8403) supplemented with 10% foetal bovine serum (JRH Biosciences 12003), Penicillin/Streptomycin solution diluted 1:100 (Sigma P7539), and 2 mM L-glumtamine (Sigma G7513), and allowed to adhere overnight at 37° C. in 5% CO2. Compounds are then added to the cell media in 2-fold serial dilutions from a top final concentration of 10 μM as a full matrix of concentrations in a final cell volume of 200 μl, and the cells are then incubated at 37° C. in 5% CO2. After 96 h, 40 μl of MTS reagent (Promega G358a) is added to each well and the cells are incubated for 1 h at 37° C. in 5% CO2. Finally, absorbance is measured at 490 nm using a SpectraMax Plus 384 reader (Molecular Devices) and IC50 values can be calculated.

The target in data set [2] is T1, full-length ATR (Homo sapiens, UniProt Q13535).
T1 construct: Assays are carried out at 25° C. in the presence of 5 nM full-length ATR
T1 sequence (Q13535 whole entry): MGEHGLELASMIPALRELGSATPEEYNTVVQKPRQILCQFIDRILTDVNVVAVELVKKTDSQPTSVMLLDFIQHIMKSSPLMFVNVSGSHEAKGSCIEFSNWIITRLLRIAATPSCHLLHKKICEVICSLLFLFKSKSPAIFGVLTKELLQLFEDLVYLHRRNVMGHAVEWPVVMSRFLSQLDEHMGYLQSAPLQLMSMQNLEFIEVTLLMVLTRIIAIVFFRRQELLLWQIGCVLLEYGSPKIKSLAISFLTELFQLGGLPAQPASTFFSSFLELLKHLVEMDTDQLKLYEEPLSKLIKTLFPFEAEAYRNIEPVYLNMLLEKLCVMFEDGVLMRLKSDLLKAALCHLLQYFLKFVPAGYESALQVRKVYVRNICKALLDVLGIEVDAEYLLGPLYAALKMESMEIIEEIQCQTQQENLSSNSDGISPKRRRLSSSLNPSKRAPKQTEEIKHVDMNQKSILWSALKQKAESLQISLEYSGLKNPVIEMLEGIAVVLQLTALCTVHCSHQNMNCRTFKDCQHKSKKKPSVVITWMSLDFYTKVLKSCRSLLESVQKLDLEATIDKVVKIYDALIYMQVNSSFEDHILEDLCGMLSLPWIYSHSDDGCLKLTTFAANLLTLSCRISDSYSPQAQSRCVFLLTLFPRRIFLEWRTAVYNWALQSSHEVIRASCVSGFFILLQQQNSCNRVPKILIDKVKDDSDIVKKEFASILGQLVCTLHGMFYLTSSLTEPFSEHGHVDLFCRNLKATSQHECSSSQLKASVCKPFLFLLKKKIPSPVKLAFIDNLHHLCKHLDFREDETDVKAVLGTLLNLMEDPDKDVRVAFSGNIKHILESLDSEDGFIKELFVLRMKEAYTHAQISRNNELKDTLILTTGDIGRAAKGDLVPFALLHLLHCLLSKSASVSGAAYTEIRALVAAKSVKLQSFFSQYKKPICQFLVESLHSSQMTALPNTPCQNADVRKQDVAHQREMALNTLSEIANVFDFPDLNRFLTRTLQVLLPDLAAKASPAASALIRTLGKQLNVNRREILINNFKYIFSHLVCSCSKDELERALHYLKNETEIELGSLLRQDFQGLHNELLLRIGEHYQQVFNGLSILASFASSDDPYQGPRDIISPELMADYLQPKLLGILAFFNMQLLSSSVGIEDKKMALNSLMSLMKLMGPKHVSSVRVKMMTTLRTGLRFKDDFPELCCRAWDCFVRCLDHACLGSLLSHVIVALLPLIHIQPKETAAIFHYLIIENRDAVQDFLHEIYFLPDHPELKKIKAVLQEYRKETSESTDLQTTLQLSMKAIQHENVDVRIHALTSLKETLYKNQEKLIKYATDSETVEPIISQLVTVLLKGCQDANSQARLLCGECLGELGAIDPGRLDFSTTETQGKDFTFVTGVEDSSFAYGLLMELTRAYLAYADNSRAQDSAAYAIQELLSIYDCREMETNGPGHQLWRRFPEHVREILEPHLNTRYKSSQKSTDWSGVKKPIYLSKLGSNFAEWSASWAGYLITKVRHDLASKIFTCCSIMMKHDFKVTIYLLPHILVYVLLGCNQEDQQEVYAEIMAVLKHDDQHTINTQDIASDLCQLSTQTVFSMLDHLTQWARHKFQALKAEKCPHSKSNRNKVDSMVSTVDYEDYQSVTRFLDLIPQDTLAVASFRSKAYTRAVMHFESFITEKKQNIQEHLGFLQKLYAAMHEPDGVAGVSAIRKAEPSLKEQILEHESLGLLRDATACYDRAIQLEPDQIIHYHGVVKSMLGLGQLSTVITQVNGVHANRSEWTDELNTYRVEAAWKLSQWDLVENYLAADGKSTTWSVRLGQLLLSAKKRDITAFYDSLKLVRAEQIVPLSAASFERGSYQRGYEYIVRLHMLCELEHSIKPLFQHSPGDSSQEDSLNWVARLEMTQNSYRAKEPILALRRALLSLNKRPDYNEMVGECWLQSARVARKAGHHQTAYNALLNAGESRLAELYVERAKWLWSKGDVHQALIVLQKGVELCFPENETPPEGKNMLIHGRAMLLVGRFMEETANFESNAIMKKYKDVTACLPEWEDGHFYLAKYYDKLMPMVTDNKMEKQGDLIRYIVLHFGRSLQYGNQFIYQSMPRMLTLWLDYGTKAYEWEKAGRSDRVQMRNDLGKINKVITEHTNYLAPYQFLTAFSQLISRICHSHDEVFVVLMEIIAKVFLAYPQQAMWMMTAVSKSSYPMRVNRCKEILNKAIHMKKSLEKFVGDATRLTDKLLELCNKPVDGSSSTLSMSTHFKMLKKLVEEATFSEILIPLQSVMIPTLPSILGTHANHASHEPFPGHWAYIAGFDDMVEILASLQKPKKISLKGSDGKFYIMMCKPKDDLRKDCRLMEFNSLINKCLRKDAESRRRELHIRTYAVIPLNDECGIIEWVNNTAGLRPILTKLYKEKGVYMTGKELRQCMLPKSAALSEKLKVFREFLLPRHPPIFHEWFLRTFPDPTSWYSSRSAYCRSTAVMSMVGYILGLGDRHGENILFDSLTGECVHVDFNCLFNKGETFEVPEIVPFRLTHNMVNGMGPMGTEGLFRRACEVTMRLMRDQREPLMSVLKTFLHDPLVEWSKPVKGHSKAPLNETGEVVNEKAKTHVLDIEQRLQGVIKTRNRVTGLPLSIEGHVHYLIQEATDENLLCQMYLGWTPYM
Nature of the data set: ATR inhibition assay (radioactive-phosphate incorporation). The data set is classed as biochemical. The conditions noted are these: Ki(app), 5 nM full-length ATR, 10 μM ATP. As for the experimental part:
Compounds can be screened for their ability to inhibit ATR kinase using a radioactive-phosphate incorporation assay. Assays are carried out in a mixture of 50 mM Tris/HCl (pH 7.5), 10 mM MgCl2 and 1 mM DTT. Final substrate concentrations are 10 μM [γ-33P]ATP (3 mCi ^33P ATP/mmol ATP, Perkin Elmer) and 800 μM target peptide (ASELPASQPQPFSAKKK (SEQUENCE ID NO: 1)).
Assays are carried out at 25° C. in the presence of 5 nM full-length ATR. An assay stock buffer solution is prepared containing all of the reagents listed above, with the exception of ATP and the test compound of interest. 13.5 μL of the stock solution is placed in a 96 well plate followed by addition of 2 μL of DMSO stock containing serial dilutions of the test compound (typically starting from a final concentration of 15 μM with 3-fold serial dilutions) in duplicate (final DMSO concentration 7%). The plate is pre-incubated for 10 minutes at 25° C. and the reaction initiated by addition of 15 μL [γ-33P]ATP (final concentration 10 μM).
The reaction is stopped after 24 hours by the addition of 30 μL 0.1M phosphoric acid containing 2 mM ATP. A multiscreen phosphocellulose filter 96-well plate (Millipore, Cat no. MAPHN0B50) is pretreated with 100 μL 0.2M phosphoric acid prior to the addition of 45 μL of the stopped assay mixture. The plate is washed with 5×200 μL 0.2M phosphoric acid. After drying, 100 μL Optiphase ‘SuperMix’ liquid scintillation cocktail (Perkin Elmer) is added to the well prior to scintillation counting (1450 Microbeta Liquid Scintillation Counter, Wallac).
After removing mean background values for all of the data points, Ki(app) data are calculated from non-linear regression analysis of the initial rate data using the Prism software package (GraphPad Prism version 3.0cx for Macintosh, GraphPad Software, San Diego Calif., USA).

For data set [3], the system named is HCT116 colorectal cancer cells. The data set is described as follows: Cisplatin sensitization assay, 96 h cell viability (MTS). The data set is classed as cell-based. The conditions noted are these: concentration of compound required to reduce the IC50 of Cisplatin alone by at least 3-fold; HCT116, 96 h. As for the experimental part: Compounds can be screened for their ability to sensitize HCT116 colorectal cancer cells to Cisplatin using a 96 h cell viability (MTS) assay. […] Compounds and Cisplatin are then both added simultaneously to the cell media in 2-fold serial dilutions from a top final concentration of 10 μM as a full matrix of concentrations in a final cell volume of 200 μl, and the cells are then incubated at 37° C. in 5% CO2. After 96 h, 40 μl of MTS reagent (Promega G358a) is added to each well and the cells are incubated for 1 h at 37° C. in 5% CO2. Finally, absorbance is measured at 490 nm using a SpectraMax Plus 384 reader (Molecular Devices) and the concentration of compound required to reduce the IC50 of Cisplatin alone by at least 3-fold (to 1 decimal place) can be reported.

The subject of data set [4] is Colo205 model. Nature of the data set: COLO205 model with irinotecan as the DNA damaging agent. The data set is classed as in vivo, mouse. The text has this: (§1) T/C=tumour size of treatment group compared with control group
Data set [5] relates to primary NSCLC model. The data set is described as follows: Primary non-small cell lung cancer (NSCLC) model with cisplatin as the DNA damaging agent. The data set is classed as in vivo, mouse.
Source text: as §1

The target in data set [6] is T2, intracellular ATR (Homo sapiens, UniProt Q13535).
T2 construct: endogenous in cells; host or cells: HT29
T2 sequence (Q13535 whole entry): as above
T2 sequence (Q8WXE1 whole entry partner): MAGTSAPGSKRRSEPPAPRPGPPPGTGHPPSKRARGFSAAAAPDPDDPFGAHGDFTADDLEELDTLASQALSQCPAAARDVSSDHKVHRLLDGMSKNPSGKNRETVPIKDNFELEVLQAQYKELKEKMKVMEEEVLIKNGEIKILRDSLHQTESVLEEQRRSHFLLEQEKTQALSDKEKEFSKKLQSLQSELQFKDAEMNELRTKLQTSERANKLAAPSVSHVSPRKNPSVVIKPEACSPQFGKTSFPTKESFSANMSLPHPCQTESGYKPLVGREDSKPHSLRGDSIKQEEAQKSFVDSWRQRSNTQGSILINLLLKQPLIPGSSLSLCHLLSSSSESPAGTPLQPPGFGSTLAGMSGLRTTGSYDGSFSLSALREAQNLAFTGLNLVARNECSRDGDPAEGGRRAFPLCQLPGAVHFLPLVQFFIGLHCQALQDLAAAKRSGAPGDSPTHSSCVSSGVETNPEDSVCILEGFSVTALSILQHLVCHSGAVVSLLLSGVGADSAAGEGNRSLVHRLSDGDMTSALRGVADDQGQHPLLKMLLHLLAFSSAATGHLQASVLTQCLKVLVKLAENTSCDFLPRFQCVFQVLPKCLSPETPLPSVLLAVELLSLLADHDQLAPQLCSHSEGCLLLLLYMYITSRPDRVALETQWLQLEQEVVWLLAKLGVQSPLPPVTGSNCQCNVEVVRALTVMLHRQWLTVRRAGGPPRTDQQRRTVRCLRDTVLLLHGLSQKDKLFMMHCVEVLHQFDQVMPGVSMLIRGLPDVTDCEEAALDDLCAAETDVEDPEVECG
The data set is described as follows: Cellular ATR inhibition assay (H2AX phosphorylation in hydroxyurea treated HT29 cells). The data set is classed as cell-based. As to conditions: 2 mM hydroxyurea, phosphorylated H2AX-positive nuclei. As to the method: Compounds can be screened for their ability to inhibit intracellular ATR using an immunofluorescence microscopy assay to detect phosphorylation of the ATR substrate histone H2AX in hydroxyurea treated cells. HT29 cells are plated at 14,000 cells per well in 96-well black imaging plates (BD 353219) in McCoy's 5A media (Sigma M8403) supplemented with 10% foetal bovine serum (JRH Biosciences 12003), Penicillin/Streptomycin solution diluted 1:100 (Sigma P7539), and 2 mM L-glumtamine (Sigma G7513), and allowed to adhere overnight at 37° C. in 5% CO2. Compounds are then added to the cell media from a final concentration of 25 μM in 3-fold serial dilutions and the cells are incubated at 37° C. in 5% CO2. After 15 min, hydroxyurea (Sigma H8627) is added to a final concentration of 2 mM.
After 45 min of treatment with hydroxyurea, the cells are washed in PBS, fixed for 10 min in 4% formaldehyde diluted in PBS (Polysciences Inc 18814), washed in 0.2% Tween-20 in PBS (wash buffer), and permeabilised for 10 min in 0.5% Triton X-100 in PBS, all at room temperature. The cells are then washed once in wash buffer and blocked for 30 min at room temperature in 10% goat serum (Sigma G9023) diluted in wash buffer (block buffer). […]
Cells are imaged for Alexa Fluor 488 and Hoechst intensity using the BD Pathway 855 Bioimager and Attovision software (BD Biosciences, Version 1.6/855) to quantify phosphorylated H2AX Ser139 and DNA staining, respectively. The percentage of phosphorylated H2AX-positive nuclei in a montage of 9 images at 20× magnification is then calculated for each well using BD Image Data Explorer software (BD Biosciences Version 2.2.15). […] The percentage of H2AX positive nuclei is finally plotted against concentration for each compound and IC50s for intracellular ATR inhibition are determined using Prism software (GraphPad Prism version 3.0cx for Macintosh, GraphPad Software, San Diego Calif., USA).

Data set [7] is described as follows: Pharmacokinetics (noncompartmental, blood or plasma). The conditions noted are these: in vivo, intravenous (IV) dosing. The text has this: Noncompartmental pharmacokinetic parameters can be analyzed using Watson Bioanalytical LIMS (Version 7.4; Thermo Fisher Scientific) from either the blood or plasma samples. The following parameters are estimated following intravenous (IV) dosing; terminal elimination half-life (T1/2=ln(2)/λz, where λz is the first order rate constant associated with the terminal (log-linear) portion of the curve. The area under the curve (AUClast=area under the curve from the time of dosing to the last measurable concentration). The area under the curve extrapolated to infinity (AUC0-∞=AUClast+Clast/λz). The clearance (Cl; Cl=DoseIV/AUC0-∞).
The area under the first moment curve (AUMClast=area under the concentration times time versus time curve from the time of dosing to the last measurable concentration). The area under the first moment curve extrapolated to infinity (AUMC0-∞=AUMClast+Clast×t/λz+Clast/λz^2). The mean residence time (MRT=AUMC0-∞/AUC0-∞) and the steady state volume of distribution (Vdss=MRT×Cl).
Clearance and volume of distribution can also be obtained using methods known to one of skill in the art (see e.g., Handbook of Essential Pharmacokinetics, Pharmacodynamics and Drug Metabolism for Industrial Scientists, Younggil Kwon, pp 18-28 (Non-compartmental Approach)).

The nature of data set [8]: Mouse PO/PK in tumor (FIG. 6). The data set is classed as in vivo. As to conditions: mouse grafted with tumors, compared with Compound P-110. The text has this: FIG. 6: Mouse PO/PK in tumor

In general, IC50 refers to the point on the concentration scale where inhibition reaches its midpoint. For orientation: clearance means a measure of how efficiently the substance is removed, as volume per time. Higher therefore signals a high capacity for elimination. The half-life is the time needed for the level to fall by half in the phase considered. High values mean slow loss, low ones fast loss.

For the compound `[2H]C([2H])([2H])C([2H])(C([2H])([2H])[2H])S(=O)(=O)c1ccc(-c2cnc(N)c(-c3cc(-c4ccc(CNC5CCOCC5)cc4)no3)n2)cc1` [Compound II-2, 5-[4-[1,2,2,2-tetradeuterio-1-(trideuteriomethyl)ethyl]sulfonylphenyl]-3-[3-[4-[(tetrahydropyran-4-ylamino)methyl]phenyl]isoxazol-5-yl]pyrazin-2-amine], the half-inhibitory concentration (IC50) in data set [1] worked out at 59 nM. Further, the Ki in data set [2] amounted to 0.105 nM. Moreover, the “Cisplatin sensitization” value in data set [3] turned out to be 39 nM.

For `CC(C)S(=O)(=O)c1ccc(-c2cnc(N)c(-c3cc(-c4ccc(CN[C@H]5CCOC5)cc4)no3)n2)cc1` [Compound P-110, reference compound], the Sensitization entry in data set [4] (same model (irinotecan), compound 45 mg/kg twice a day (bid)) is “no sensitization”. The Sensitisation result in data set [5] (same model (cisplatin), compound 30 mpk bid (on/1 day off)) is “no sensitisation”.

As to `CC(C)S(=O)(=O)c1ccc(-c2cnc(N)c(-c3cc(-c4ccc(CN[C@H]5CCOC5)cc4)no3)n2)cc1` [P-110 (S), reference compound], the results for the 50% inhibitory concentration (IC50) in data set [1] and in data set [6] were 280 nM and 46 nM, respectively. In addition, the Ki in data set [2] worked out at 0.26 nM. In data set [3], the “Cisplatin sensitization” value is reported as 156 nM.

For `CC(C)S(=O)(=O)c1ccc(-c2cnc(N)c(-c3cc(-c4ccc(CNC5CCOCC5)cc4)no3)n2)cc1` [Compound I-1], the IC50 stood at 83 nM in data set [1] and 13 nM in data set [6]. Also, the Ki in data set [2] came to 0.14 nM. In addition, the “Cisplatin sensitization” value in data set [3] is listed as 39 nM. The compound further showed a clearance in data set [7] of 7.1 mL/min/kg. This compound gave a half-life in data set [7] of 4.7 h. For the same compound, the Vd in data set [7] (read-out: Vss) was found to be 2.8 L/kg. Also, the “% T/C (tumour size of treatment group compared with control group)” value in data set [4] (day 13, irinotecan 20 mg/kg, compound 40 mg/kg PO qd3 of a four-day cycle, five cycles) is 10.9%; in data set [5] (day 20, cisplatin 3 mg/kg, compound 30 mg/kg uid q2d) it was 1.7%. Also, the Effect on tumors result was “marked regression of tumors” in data set [4] (irinotecan 20 mg/kg, compound orally as a solution 40 mg/kg, PO qd3, five cycles) and “marked regression of tumors” in data set [5] (cisplatin 3 mg/kg, compound 30 mg/kg uid q2d). Also, the “Oral exposure in tumors” value in data set [8] is “created oral exposure in tumors compared with Compound P-110”.

Turning to `CC(C)S(=O)(=O)c1ccc(-c2cnc(N)c(-c3cc(-c4ccc(CN[C@@H]5CCOC5)cc4)no3)n2)cc1` [P-110 (R), reference compound], the IC50 in data set [1] was found to be 205 nM. The Ki in data set [2] worked out at 0.29 nM. In data set [6], this compound had an IC50 of 54 nM. For the same compound, the “Cisplatin sensitization” value in data set [3] came to 78 nM. In data set [7], this compound had a clearance of 12.7 mL/min/kg and a half-life of 2.7 h.
